Where two headings read alike, the source gives them in different places.

Holding throughout (assay type): cell-based
The subject of one experiment is H358 cells. The experiment is described as follows: H358 proliferation assay (CellTiter-Glo). To be noted: 120 h incubation, read-out: IC50 (nM), inhibitory activity against H358 cell proliferation. The protocol:
The inhibitory activity of the compounds of the present disclosure against H358 cell proliferation was measured. Below is a brief description of the experimental method: H358 cells (ATCC, CRL-5807) were cultured in RPMI1640 medium (Hyclone, SH30809.01) containing 10% fetal bovine serum (Corning, 35-076-CV) (i.e., complete medium). On the first day of the experiment, H358 cells were seeded into a 96-well plate at a density of 1200 cells/well using complete medium, with 100 μL of cell suspension per well, and the plate was incubated overnight in a 37° C., 5% CO2 cell incubator. On the second day, the test compounds, prepared in complete medium and serially diluted, were added at 10 μL/well. The final concentrations of the compounds were 9 concentration points obtained by a 5-fold serial dilution from 10 μM. A blank control containing 0.5% DMSO was set up. The plate was incubated for 120 h in a 37° C., 5% CO2 cell incubator. On the seventh day, the 96-well cell plate was removed from the incubator, and CellTiter-Glo® Luminescent Cell Viability Assay (Promega, G7573) was added at 50 μL/well. After 10 min of room temperature incubation, luminescence signals were measured using a multifunctional microplate reader (PerkinElmer, EnVision® 2105). The IC50 values for the inhibitory activity of the compounds were calculated using Graphpad Prism software.

In experiment [1] the test system is ERK phosphorylation in H358 cells. In words: H358 cell ERK phosphorylation inhibition assay (HTRF pERK/total ERK). To be noted: 3 h incubation, ratio of pERK/total ERK, read-out: IC50 (nM), inhibitory effects on ERK phosphorylation in H358 cells. The protocol: The inhibitory effects of the compounds of the present disclosure on ERK phosphorylation in H358 cells were measured. Below is a brief description of the experimental method: H358 cells (ATCC, CRL-5807) were cultured in RPMI1640 medium (Hyclone, SH30809.01) containing 10% fetal bovine serum (Corning, 35-076-CV) (i.e., complete medium). On the first day of the experiment, H358 cells were seeded into a 96-well plate at a density of 25,000 cells/well using complete medium, with 190 μL of cell suspension per well, and the plate was incubated overnight in a 37° C., 5% CO2 cell incubator. On the second day, the test compounds, prepared in complete medium and serially diluted, were added at 10 μL/well. The final concentrations of the compounds were 9 concentration points obtained by a 6-fold serial dilution from 10 μM. A blank control containing 0.5% DMSO was set up. The plate was incubated for 3 h in a 37° C., 5% CO2 cell incubator. After 3 h, the 96-well cell culture plate was removed from the incubator, and the culture medium was pipetted off. PBS (Shanghai BasalMedia Technologies Co., Ltd., B320) was added at 200 μL/well for a single wash. PBS was pipetted off, and lysis buffer (Cisbio, 64KL1FDF) containing a blocking agent (Cisbio, 64KB1AAC) was added at 50 μL/well. The plate was incubated on a shaker for 30 min at room temperature to lyse the cells. After lysis, the lysates were well mixed by pipetting, and 16 μL of lysate was transferred from each well to two HTRF 96-well assay plates (Cisbio, 66PL96100). Subsequently, 4 μL of a premixed phospho-ERK1/2 antibody solution (Cisbio, 64AERPEG) or 4 μL of a premixed total-ERK1/2 antibody solution (Cisbio, 64NRKPEG) was added to each of the plates. The plates were sealed with a plate sealer film, centrifuged for 1 min in a microplate centrifuge, and incubated overnight at room temperature in the dark. On the third day, fluorescence values at an excitation wavelength of 337 nm and emission wavelengths of 665 nm and 620 nm were measured using a PHERAstar multifunctional microplate reader (BMG Labtech, PHERAstar FS). The IC50 values for the inhibitory activity of the compounds were calculated using Graphpad Prism software, based on the compound concentration and the ratio of pERK/total ERK.

Another experiment deals with MIA PaCa-2 cells. The experiment is described as follows: MIA PaCa-2 cell proliferation assay (CellTiter-Glo). To be noted: 72 h incubation, read-out: IC50 (nM), inhibitory activity against MIA PaCa-2 cell proliferation. The protocol:
The inhibitory activity of the compounds of the present disclosure against MIA PaCa-2 cell proliferation was measured. Below is a brief description of the experimental method:
MIA PaCa-2 cells (ATCC, CRL-1420) were cultured in DMEM/HIGH GLUCOSE medium (GE, SH30243.01) containing 10% fetal bovine serum (Corning, 35-076-CV) and 2.5% horse serum (Beyotime Biological Tech., C0262) (i.e., complete medium). On the first day of the experiment, MIA PaCa-2 cells were seeded into a 96-well plate at a density of 500 cells/well using complete medium, with 90 µL of cell suspension per well, and the plate was incubated overnight in a 37° C., 5% CO2 cell incubator. On the second day, the test compounds, prepared in complete medium and serially diluted, were added at 10 μL/well. The final concentrations of the compounds were 9 concentration points obtained by a 5-fold serial dilution from 10 μM. A blank control containing 0.5% DMSO was set up. The plate was incubated for 72 h in a 37° C., 5% CO2 cell incubator. On the fifth day, the 96-well cell plate was removed from the incubator, and CellTiter-Glo® Luminescent Cell Viability Assay (Promega, G7573) was added at 50 μL/well. After 10 min of room temperature incubation, luminescence signals were measured using a multifunctional microplate reader (PerkinElmer, EnVision2015). The IC50 values for the inhibitory activity of the compounds were calculated using Graphpad Prism software.
For orientation: ATP-based viability assays read luminescence as a measure of living cells.

For the compound `C=C(F)C(=O)N1CCN2C(=O)c3cc(F)c(-c4ccc(F)c5sc(N)c(C#N)c45)c4c(Cl)nn(c34)CC[C@H]2C1` (atropisomer, axis not shown) [Example 17-P2, (S)-2-Amino-4-((S)-4-chloro-2-fluoro-10-(2-fluoroacryloyl)-14-oxo-8,8a,9,10,11,12-hexahydro-7H,14H-pyrazino[1′,2′:5,6][1,5]diazocino[3,2,1-hi]indazol-3-yl)-7-fluorobenzo[b]thiophene-3-carbonitrile], the IC50 with H358 cells (Homo sapiens, NCI-H358, 120 h) stood at 1.87 nM; in experiment [1] (Homo sapiens, NCI-H358, 3 h), 2 nM; in the experiment on MIA PaCa-2 cells (Homo sapiens, MIA PaCa-2, 72 h), 1.88 nM.

As for `C=CC(=O)N1CCN2C(=O)c3cc(F)c(-c4ccc(F)c5sc(N)c(C#N)c45)c4c(C)cn(c34)CC[C@H]2C1` (atropisomer, axis not shown) [Example 18-P2, (S)-4-((S)-10-Acryloyl-2-fluoro-4-methyl-14-oxo-8,8a,9,10,11,12-hexahydro-7H,14H-pyrazino[1′,2′:5,6][1,5]diazocino[3,2,1-hi]indol-3-yl)-2-amino-7-fluorobenzo[b]thiophene-3-carbonitrile], the IC50 with H358 cells (Homo sapiens, NCI-H358, 120 h) amounted to 9.57 nM; in experiment [1] (Homo sapiens, NCI-H358, 3 h) it was 1.09 nM; with MIA PaCa-2 cells (Homo sapiens, MIA PaCa-2, 72 h) it was 9.16 nM.

For `C=CC(=O)N1CCN2C(=O)c3cc(F)c(-c4ccc(F)c5sc(N)c(C#N)c45)c4c(Cl)cn(c34)CC[C@H]2C1` (atropisomer, axis not shown) [Example 19-P2, (S)-4-((S)-10-Acryloyl-4-chloro-2-fluoro-14-oxo-8,8a,9,10,11,12-hexahydro-7H,14H-pyrazino[1′,2′:5,6][1,5]diazocino[3,2,1-hi]indol-3-yl)-2-amino-7-fluorobenzo[b]thiophene-3-carbonitrile], the IC50 is 5.65 nM in the experiment on H358 cells (Homo sapiens, NCI-H358, 120 h); 0.97 nM in experiment [1] (Homo sapiens, NCI-H358, 3 h); 4.9 nM with MIA PaCa-2 cells (Homo sapiens, MIA PaCa-2, 72 h).

As to `C=CC(=O)N1CCN2C(=O)c3cc(F)c(-c4ccc(F)c5sc(N)c(C#N)c45)c4nnn(c34)CC[C@H]2C1` (atropisomer, axis not shown) [Example 20-P1, (R)-4-((S)-9-Acryloyl-2-fluoro-12-oxo-7,7a,8,9,10,11-hexahydro-6H,12H-4,5,5a,9,11a-pentaazabenzo[5,6]cycloocta[1,2,3-cd]inden-3-yl)-2-amino-7-fluorobenzo[b]thiophene-3-carbonitrile], the IC50 with H358 cells came to 4.94 nM; in experiment [1], 3.67 nM; in the experiment with MIA PaCa-2 cells, 1.66 nM.

Take `C=CC(=O)N1CCN2C(=O)c3cc(F)c(-c4ccc(F)c5sc(N)c(C#N)c45)c4nnn(c34)CC[C@H]2C1` (atropisomer, axis not shown) [Example 20-P2, (S)-4-((S)-9-Acryloyl-2-fluoro-12-oxo-7,7a,8,9,10,11-hexahydro-6H,12H-4,5,5a,9,11a-pentaazabenzo[5,6]cycloocta[1,2,3-cd]inden-3-yl)-2-amino-7-fluorobenzo[b]thiophene-3-carbonitrile]: the IC50 came out at 7.9 nM in the experiment on H358 cells (Homo sapiens, NCI-H358, 120 h); 0.88 nM in experiment [1]; 1.21 nM in the experiment on MIA PaCa-2 cells (Homo sapiens, MIA PaCa-2, 72 h).

`C=CC(=O)N1CCN2C(=O)c3cc(F)c(-c4ccc(F)c5sc(N)c(C#N)c45)c4ccn(c34)CC[C@H]2C1` [Example 2, 4-((S)-10-Acryloyl-2-fluoro-14-oxo-8,8a,9,10,11,12-hexahydro-7H,14H-pyrazino[1′,2′:5,6][1,5]diazocino[3,2,1-hi]indol-3-yl)-2-amino-7-fluorobenzo[b]thiophene-3-carbonitrile]: the IC50 was found to be 10.5 nM with H358 cells (Homo sapiens, NCI-H358, 120 h); 0.28 nM in experiment [1] (Homo sapiens, NCI-H358, 3 h); 5.87 nM in the experiment on MIA PaCa-2 cells (Homo sapiens, MIA PaCa-2, 72 h).

Regarding `C=CC(=O)N1CCN2C(=O)c3cc(F)c(-c4ccc(F)c5sc(N)c(C#N)c45)c4cc(C)n(c34)CC[C@H]2C1` [Example 4, 4-((S)-10-Acryloyl-2-fluoro-5-methyl-14-oxo-8,8a,9,10,11,12-hexahydro-7H,14H-pyrazino[1′,2′:5,6][1,5]diazocino[3,2,1-hi]indol-3-yl)-2-amino-7-fluorobenzo[b]thiophene-3-carbonitrile], the IC50 was determined as 13.4 nM in the experiment on H358 cells (Homo sapiens, NCI-H358, 120 h); 1.16 nM in experiment [1] (Homo sapiens, NCI-H358, 3 h); 11.2 nM with MIA PaCa-2 cells (Homo sapiens, MIA PaCa-2, 72 h).

For the compound `C=CC(=O)N1C[C@@H]2CCn3ncc4c(-c5ccc(F)c6sc(N)c(C#N)c56)c(F)cc(c43)C(=O)N2C[C@H]1C` [Example 10, 4-((8aS,11R)-10-Acryloyl-2-fluoro-11-methyl-14-oxo-8,8a,9,10,11,12-hexahydro-7H,14H-pyrazino[1′,2′:5,6][1,5]diazocino[3,2,1-hi]indazol-3-yl)-2-amino-7-fluorobenzo[b]thiophene-3-carbonitrile], the IC50 with H358 cells (Homo sapiens, NCI-H358, 120 h) is 0.8 nM; in experiment [1] (Homo sapiens, NCI-H358, 3 h) it was 0.15 nM; with MIA PaCa-2 cells (Homo sapiens, MIA PaCa-2, 72 h) it was 0.94 nM.

The record behind these values is patent publication US20250122211A1, “NITROGEN-CONTAINING TETRACYCLIC COMPOUND, PREPARATION METHOD THEREFOR, AND MEDICAL USE THEREOF” (Jiangsu Hengrui Pharmaceuticals Co., Ltd., priority 2021, published 2025).
